# From patent US6432956B1, “Method for treatment of sleep apneas” (priority 1990, dated 2002)
# Assays:
# [1] = system: patients suffering from obstructive sleep apnea; assay: Clinical experience: single dose of buspirone at bedtime in patients with obstructive sleep apnea; type: in vivo, human (patients)
# Text: The effectiveness of azapirone treatment of patients suffering from sleep apneas can be exemplified by clinical experience with buspirone. […] One of the most consistent physiological measurements of improvement was a 10 to 20% increase in blood oxygen levels, an indication of improved respiratory efficiency.
# [2] = system: respiration in normal male volunteers; conditions: Rapoport, et al. 1988; cited from earlier work
# [3] = system: respiration in cats; conditions: Garner, et al. 1989; cited from earlier work
# [4] = single dose at bedtime, patients suffering from obstructive sleep apnea
smiles,measurement,setting,value
O=C1CC2(CCCC2)CC(=O)N1CCCCN1CCN(c2ncccn2)CC1 [buspirone],effectiveness in treating sleep apneas,[1]; patients suffering from sleep apneas,effective
same,episodes of sleep disturbance,[1]; [4],marked reduction in episodes of sleep disturbance
same,sleep efficiency,[1]; [4],increased sleep efficiency
same,total sleep time,[1]; [4],gain in total sleep time
same,effect on respiration,[2],stimulatory effect on respiration
same,effect on respiration,[3],stimulatory effect on respiration
